Laboratory results as given in patent US20180155757A1, “IDENTIFICATION OF BACTERIA THAT ARE RESISTANT TO CARBAPENEMS BY MEMBRANE IMPERVIOUSNESS” (BIOMÉRIEUX, priority 2015, published 2018).
Like-named read-outs stand apart in the source and are kept apart here.

Key:
Assay in all cases: Etest MIC of indicator carbapenems on MH II agar without/with PMBN
Type in all cases: cell-based
[1] = test system: Enterobacter aerogenes EA 15038 (porin+)
Experimental: (§1) The determinations of antibiotic MIC were carried out on solid culture media with the Etest® method. To do this, Etest® strips (bioMérieux, France) were used: • Etest® Imipenem IM 32, and • Etest® Ertapenem ETP 32, and also solid culture media, differing from one another by virtue of their non-inhibitory concentrations of PMBN.
(§2) These solid culture media are prepared in Petri dishes (0=145 mm; V=50 ml) on a base of MH II Agar (Becton Dickinson®, United States), more or less supplemented with PMBN. The PMBN concentrations range from 0 up to concentrations equivalent to one fifth of the MIC of PMBN (⅕ MICPMBN).
(§3) Using a swab and the Retro C80™ rota-plater (bioMérieux, France), the culture media were inoculated with the bacteria, originating from an inoculum of 0.5 McFarland, prepared in 0.85% NaCl solution from colonies subcultured the day before on MH II agar.
(§4) The various Etest® strips are then deposited on the surface of the culture media. After 16 to 20 hours of incubation at 35° C., the MICS were read.

[2] = test system: Enterobacter aerogenes EA 2 (porin+); conditions: Klebsiella aerogenes
Experimental: as §1, §2, §3, §4

[3] = test system: K. pneumoniae 1108007 (VIM-1 producer)
Experimental: as §1, §2, §3, §4
(§5) To do this, imipenem and ertapenem were used as indicator carbapenems. Non-inhibitory concentrations of PMBN, equivalent to concentrations of one tenth ( 1/10), one eighth (⅛) and one fifth (⅕) of the MIC of PMBN, were applied.

C. freundii 0403012 = test system: C. freundii 0403012
Experimental: as §1, §2, §3, §4, §5

[4] = test system: E. cloacae 1008096 (VIM-1 producer)
Experimental: as §1, §2, §3, §4, §5

[5] = test system: E. coli 1012292 (KPC-2 producer)
Experimental: as §1, §2, §3, §4, §5

[6] = test system: K. pneumoniae 1104053 (OXA-48 producer)
Experimental: as §1, §2, §3, §4, §5

[7] = test system: S. marcescens 1008175 (IMP-1 producer)
Experimental: as §1, §2, §3, §4, §5

[8] = test system: K. pneumoniae 1108016 (VIM-1 producer)
Experimental: as §1, §2, §3, §4, §5

[9] = test system: E. coli 0506040 (VIM-1 producer)
Experimental: as §1, §2, §3, §4, §5

[10] = test system: K. pneumoniae 1108001 (KPC-2 producer)
Experimental: as §1, §2, §3, §4, §5

[11] = test system: K. pneumoniae 1108002 (KPC-3 producer)
Experimental: as §1, §2, §3, §4, §5

[12] = test system: E. cloacae 1008073 (VIM-1 producer)
Experimental: as §1, §2, §3, §4, §5

[13] = test system: E. cloacae 1101172 (NDM producer)
Experimental: as §1, §2, §3, §4, §5

[14] = test system: K. pneumoniae 0901027 (KPC-3 producer)
Experimental: as §1, §2, §3, §4, §5

C. freundii 1204047 = test system: C. freundii 1204047
Experimental: as §1, §2, §3, §4, §5

[15] = test system: E. cloacae 0901026 (KPC-2 producer)
Experimental: as §1, §2, §3, §4, §5

[16] = test system: K. pneumoniae 1108006 (KPC-2 producer)
Experimental: as §1, §2, §3, §4, §5

[17] = test system: K. pneumoniae 1012335 (OXA-48 producer)
Experimental: as §1, §2, §3, §4, §5

[18] = test system: E. cloacae 1008079 (IMP-1 producer)
Experimental: as §1, §2, §3, §4, §5

[19] = test system: K. pneumoniae 0404024 (VIM-1 producer)
Experimental: as §1, §2, §3, §4, §5

Compound: C[C@@H](O)[C@H]1C(=O)N2C(C(=O)O)=C(S[C@@H]3CN[C@H](C(=O)Nc4cccc(C(=O)O)c4)C3)[C@H](C)[C@H]12 [ETP, ertapenem]
- MIC ([1]; EA 15038 (porin+), [PMBN] MIC/8): 0.125 µg/mL
- MIC ([1]; Klebsiella aerogenes): 0.125 µg/mL
- MIC ([1]; Klebsiella aerogenes, EA 15038 (porin+), [PMBN] 0, read-out: MIC): 0.25 µg/mL
- MIC ([1]; Klebsiella aerogenes, EA 15038 (porin+), [PMBN] MIC/5, read-out: MIC): 0.06 µg/mL
- MIC [2]: 0.125 µg/mL
- MIC ([2]; EA 2 (porin+), [PMBN] 0, read-out: MIC): 0.03 µg/mL
- MIC ([2]; EA 2 (porin+), [PMBN] MIC/8, read-out: MIC): 0.25 µg/mL
- MIC ([2]; EA 2 (porin+), [PMBN] MIC/10, read-out: MIC): 0.25 µg/mL
- MIC ([3]; [PMBN] 0): 8 µg/mL
- MIC ([3]; [PMBN] MIC/5): 8 µg/mL
- MIC ([3]; [PMBN] MIC/8): 16 µg/mL
- MIC ([3]; [PMBN] MIC/10): 16 µg/mL
- MIC (C. freundii 0403012; [PMBN] 0): 8 µg/mL
- MIC (C. freundii 0403012; [PMBN] MIC/5): 4 µg/mL
- MIC (C. freundii 0403012; [PMBN] MIC/8): 4 µg/mL
- MIC (C. freundii 0403012; [PMBN] MIC/10): 8 µg/mL
- MIC ([4]; [PMBN] 0): 4 µg/mL
- MIC ([4]; [PMBN] MIC/5): 4 µg/mL
- MIC ([4]; [PMBN] MIC/8): 4 µg/mL
- MIC ([4]; [PMBN] MIC/10): 4 µg/mL
- MIC ([5]; [PMBN] 0): 8 µg/mL
- MIC ([5]; [PMBN] MIC/5): 2 µg/mL
- MIC ([5]; [PMBN] MIC/8): 4 µg/mL
- MIC ([5]; [PMBN] MIC/10): 4 µg/mL
- MIC ([6]; [PMBN] 0): 4 µg/mL
- MIC ([6]; [PMBN] MIC/5): 4 µg/mL
- MIC ([6]; [PMBN] MIC/8): 4 µg/mL
- MIC ([6]; [PMBN] MIC/10): 4 µg/mL
- MIC ([7]; [PMBN] 0): 256 µg/mL
- MIC ([7]; [PMBN] MIC/5): 256 µg/mL
- MIC ([7]; [PMBN] MIC/8): 256 µg/mL
- MIC ([7]; [PMBN] MIC/10): 256 µg/mL
- MIC ([8]; [PMBN] 0): 1 µg/mL
- MIC ([8]; [PMBN] MIC/5): 2 µg/mL
- MIC ([8]; [PMBN] MIC/8): 4 µg/mL
- MIC ([8]; [PMBN] MIC/10): 4 µg/mL
- MIC ([9]; [PMBN] 0): 0.25 µg/mL
- MIC ([9]; [PMBN] MIC/5): 0.25 µg/mL
- MIC ([9]; [PMBN] MIC/8): 0.25 µg/mL
- MIC ([9]; [PMBN] MIC/10): 0.25 µg/mL
- MIC ([10]; [PMBN] 0): 16 µg/mL
- MIC ([10]; [PMBN] MIC/5): 8 µg/mL
- MIC ([10]; [PMBN] MIC/8): 8 µg/mL
- MIC ([10]; [PMBN] MIC/10): 16 µg/mL
- MIC ([11]; [PMBN] 0): 16 µg/mL
- MIC ([11]; [PMBN] MIC/5): 64 µg/mL
- MIC ([11]; [PMBN] MIC/8): 64 µg/mL
- MIC ([11]; [PMBN] MIC/10): 64 µg/mL
- MIC ([12]; [PMBN] 0): 2 µg/mL
- MIC ([12]; [PMBN] MIC/5): 1 µg/mL
- MIC ([12]; [PMBN] MIC/8): 1 µg/mL
- MIC ([12]; [PMBN] MIC/10): 1 µg/mL
- MIC ([13]; [PMBN] 0): 4 µg/mL
- MIC ([13]; [PMBN] MIC/5): 4 µg/mL
- MIC ([13]; [PMBN] MIC/8): 8 µg/mL
- MIC ([13]; [PMBN] MIC/10): 8 µg/mL
- MIC ([14]; [PMBN] 0): 16 µg/mL
- MIC ([14]; [PMBN] MIC/5): 64 µg/mL
- MIC ([14]; [PMBN] MIC/8): 64 µg/mL
- MIC ([14]; [PMBN] MIC/10): 64 µg/mL
- MIC (C. freundii 1204047; [PMBN] 0): 32 µg/mL
- MIC (C. freundii 1204047; [PMBN] MIC/5): 4 µg/mL
- MIC (C. freundii 1204047; [PMBN] MIC/8): 8 µg/mL
- MIC (C. freundii 1204047; [PMBN] MIC/10): 8 µg/mL
- MIC ([15]; [PMBN] 0): 16 µg/mL
- MIC ([15]; [PMBN] MIC/5): 8 µg/mL
- MIC ([15]; [PMBN] MIC/8): 32 µg/mL
- MIC ([15]; [PMBN] MIC/10): 32 µg/mL
- MIC ([16]; [PMBN] 0): 64 µg/mL
- MIC ([16]; [PMBN] MIC/5): 256 µg/mL
- MIC ([16]; [PMBN] MIC/8): 256 µg/mL
- MIC ([16]; [PMBN] MIC/10): 256 µg/mL
- MIC ([17]; [PMBN] 0): 2 µg/mL
- MIC ([17]; [PMBN] MIC/5): 4 µg/mL
- MIC ([17]; [PMBN] MIC/8): 4 µg/mL
- MIC ([17]; [PMBN] MIC/10): 4 µg/mL
- MIC ([18]; [PMBN] 0): 4 µg/mL
- MIC ([18]; [PMBN] MIC/5): 8 µg/mL
- MIC ([18]; [PMBN] MIC/8): 8 µg/mL
- MIC ([18]; [PMBN] MIC/10): 8 µg/mL
- MIC ([19]; [PMBN] 0): 128 µg/mL
- MIC ([19]; [PMBN] MIC/5): 16 µg/mL
- MIC ([19]; [PMBN] MIC/8): 32 µg/mL
- MIC ([19]; [PMBN] MIC/10): 32 µg/mL
